Results on eleven molecules are retold here after patent US9005905B2, “Method of identifying transmembrane protein-interacting compounds” (Omeros Corporation, priority 2002, dated 2015).

The target in one assay is DAT-NLS-GFP (Homo sapiens, UniProt Q01959, C581K/S582R/Y578K). The experiment in a line: DAT-NLS-GFP translocation, HEK cells. Format: cell-based. The note with it: 1 micromolar, 48 hours.
The next assay concerns the target T1, DAT-NLS-RFP (Homo sapiens, UniProt Q01959, C581K/S582R/Y578K).
T1 construct: The full length cDNA encoding the human dopamine transporter (hDAT) was amplified using DAT in pcDNA3 as template; expressed in transfected cells; host or cells: HEK cells
The experiment in a line: DAT-NLS-RFP trafficking to the nucleus, HEK cells. Format: cell-based. The note with it: 10 micromolar, 48 hours. As for the experimental part: HEK cells were transfected with a DNA construct encoding DAT-NLS-RFP (2 micrograms) and incubated for 48 hours. At 6, 22, 30 and 42 hours after transfection, the cells were treated with cocaine or amphetamine (final concentration 10 micromolar), or left untreated. The cells were examined by confocal microscopy.

In a further assay the target is T2, Cys-LT2-NLS-GFP (Homo sapiens, UniProt Q9NS75, D314R/E310K/N311K).
T2 construct: expressed in transfected cells; host or cells: HEK cells
T2 sequence (Q9NS75 1-346 E310K/N311K/D314R): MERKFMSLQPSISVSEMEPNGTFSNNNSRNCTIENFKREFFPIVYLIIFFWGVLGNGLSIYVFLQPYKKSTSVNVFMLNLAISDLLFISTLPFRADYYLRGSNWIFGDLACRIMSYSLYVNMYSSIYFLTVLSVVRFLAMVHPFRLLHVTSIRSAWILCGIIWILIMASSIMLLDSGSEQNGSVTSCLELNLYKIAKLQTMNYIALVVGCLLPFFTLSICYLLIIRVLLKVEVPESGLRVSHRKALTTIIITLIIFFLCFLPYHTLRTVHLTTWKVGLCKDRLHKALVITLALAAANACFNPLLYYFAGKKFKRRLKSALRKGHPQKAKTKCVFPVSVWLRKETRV
The experiment in a line: Cys-LT2-NLS-GFP translocation, HEK cells. Format: cell-based. The note with it: 10 micromolar. As for the experimental part: The DNA encoding Cys-LT2-NLS-GFP (3 micrograms) was used to transfect HEK cells. These cells were treated with the cysteinyl leukotriene receptor antagonist, montelukast (10 micromolar). […] Control cells received no antagonist. The cells were examined by confocal microscopy.

Assay [1] concerns the target T3, D1-NLS-GFP (Homo sapiens, UniProt P21728, A340R/D336K/F337K/R338F).
T3 construct: expressed in transfected cells; host or cells: HEK cells (HEK293T)
As to the kind of experiment: D1-NLS-GFP translocation, long-term agonist treatment, HEK cells. Format: cell-based. To be noted: agonist 10 micromolar, 48 hours. As for the experimental part: The cells were examined by confocal microscopy.
HEK cells were transfected with a DNA construct encoding D1-NLS-GFP (1.5 micrograms of DNA), and incubated with the agonist pergolide (10 micromolar) for 48 hours. […] The cells were examined by confocal microscopy.
Control HEK cells were transfected with a DNA construct encoding D1-NLS-GFP (1.5 micrograms of DNA) and left untreated.

A further assay has as its target T4, 5HT1B-NLS-GFP (Homo sapiens, UniProt P28222, D375K/E374K/Q378R).
T4 construct: expressed in transfected cells; host or cells: HEK cells
The experiment in a line: 5HT1B-NLS-GFP translocation, HEK cells. Format: cell-based. The note with it: 10 micromolar, 48 hours. As for the experimental part:
HEK cells were transfected with a DNA construct encoding the serotonin 5HT1B-NLS-GFP (2 micrograms). The cells were transfected with Ds-red-NUC to verify the localisation of the nucleus (1 microgram). Cells were treated with methysergide (10 micromolar), a serotonin receptor antagonist. […] Control cells received no antagonist. The cells were examined by confocal microscopy.

Assay [2] has as its target T3, D1-NLS-GFP. The experiment in a line: D1-NLS-GFP (with D1-WT) translocation, antagonist dose response, HEK cells, confocal microscopy. Format: cell-based. To be noted: 48 hours. As for the experimental part:
Test compounds were prepared in a stock solution of 1 millimolar concentration and diluted in growth medium to achieve a final concentration ranging between 10 nanomolar and 10 micromolar when added to cell plates. Fresh compound-containing medium was added to cells at 6 hours, 22 hours, 30 hours and 42 hours after transfection.
Cells were visualised using the LSM510 Zeiss confocal laser microscope. GFP was visualised following excitation with the argon laser at 488 nm excitation wavelength and the DsRed was visualised following excitation with the helium neon laser at 543 nm wavelength for excitation. The confocal images were captured on disk and evaluated. In each experiment, multiple fields of cells (n=6-8 with 30-90 cells each) were counted and evaluated for localisation of the signal on the cell surface, in the cytoplasm and in the nucleus.
HEK cells were transfected with DNA encoding D1-NLS-GFP (2 micrograms), and D1-WT (6 micrograms) for 48 hours. […] The medium containing antagonist was changed at 6, 22, 30 and 42 hours after transfection. Control cells received no antagonist treatment.

In another assay the target is T5, D1-IC1-NLS-GFP (Homo sapiens, UniProt P21728, H53R/I49K/R50K/R52K).
T5 construct: expressed in transfected cells; host or cells: HEK cells
T5 sequence (P21728 9-446 I49K/R50K/R52K/H53R limits assumed): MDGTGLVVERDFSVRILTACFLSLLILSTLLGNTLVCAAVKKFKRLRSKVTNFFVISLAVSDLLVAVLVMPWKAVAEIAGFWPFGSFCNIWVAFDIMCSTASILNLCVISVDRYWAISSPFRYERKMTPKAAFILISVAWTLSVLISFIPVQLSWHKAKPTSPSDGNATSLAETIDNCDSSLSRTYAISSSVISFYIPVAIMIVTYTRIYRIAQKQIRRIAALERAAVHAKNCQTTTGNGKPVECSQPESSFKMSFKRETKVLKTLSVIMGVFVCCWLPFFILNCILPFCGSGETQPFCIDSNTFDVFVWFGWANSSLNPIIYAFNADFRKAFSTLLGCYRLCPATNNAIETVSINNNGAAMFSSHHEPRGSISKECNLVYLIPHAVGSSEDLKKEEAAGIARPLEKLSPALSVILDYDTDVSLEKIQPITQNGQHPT
The experiment in a line: D1-IC1-NLS-GFP trafficking, HEK cells. Format: cell-based. The note with it: 1 micromolar, 48 hours. An excerpt:
(§1) Nuclei were visualised with DsRED-NUC (2 micrograms). The cells were examined by confocal microscopy.

The next assay addresses D1-IC3-NLS-GFP (Homo sapiens, UniProt P21728, M262K/S263K). As to the kind of experiment: D1-IC3-NLS-GFP trafficking, HEK cells. Format: cell-based. The note with it: 10 micromolar to 100 nanomolar (four concentrations), 48 hours.
From the text: as §1

Another assay addresses T6, D1-2NLS-RFP (Homo sapiens, UniProt P21728, A340R/A406K/D336K/E404K/E405R/F337K/R338F).
T6 construct: expressed in transfected cells; host or cells: HEK cells
As to the kind of experiment: D1-2NLS-RFP trafficking, HEK cells. Format: cell-based. The note with it: 10 μM, 48 hours. As for the experimental part: By modifying the construct encoding D1-NLS-RFP, a DNA construct (D1-2NLS-RFP) was created to introduce a second NLS into the carboxyl tail of the dopamine D1 receptor by replacing the KKEEA (SEQ ID NO:171) sequence of the wild type D1 dopamine receptor with the NLS, KKKRK (SEQ ID NO:177).
HEK cells were transfected with DNA encoding this construct (D1-2NLS-RFP), and treated at intervals with the antagonist SCH-23390 (10 μM) as previously described. […] Control cells received no antagonist.

A further assay has as its target T7, HA-D1-NLS (Homo sapiens, UniProt P21728, A340R/D336K/F337K/R338F).
T7 construct: MGYPYDVPDYARTLNTSAMDGTGLVV; expressed in transfected cells; host or cells: HEK cells
As to the kind of experiment: HA-D1-NLS cell surface receptor detected by fluorometry. Format: cell-based. To be noted: removal of SCH 23390 (0.5 micromolar) for the last hour, no agonist.

The next assay has as its target D1-NLS2-GFP (Homo sapiens, UniProt P21728, A335P/A340K/D336K/F337K/F341V/K339R/R338K). The note with it: 1 micromolar, 48 hrs. From the text:
Nuclei were visualised with DsRed-nuc (2 micrograms). Cells were examined by confocal microscopy.

A further assay concerns the target T8, D2-NLS-GFP (Homo sapiens, UniProt P14416, E432K/I431K/K435R/R434K).
T8 construct: expressed in transfected cells; host or cells: HEK cells
As to the kind of experiment: D2-NLS-GFP translocation, HEK cells. Format: cell-based. As for the experimental part:
At 6, 22, 30 and 42 hours after transfection, the cells were treated with the antagonists. Cells were incubated 48 hrs after drug treatment and examined by confocal microscopy.

The next assay has as its target M1-NLS-GFP (Homo sapiens, UniProt P11229, A424K/D427R/R426K). To be noted: 10 micromolar, 48 hours. As for the experimental part: These cells were treated with iprotropium bromide (10 micromolar). The medium containing antagonist was replaced at 6, 22, 30 and 42 hours after transfection. Control cells received no antagonist treatment. The cells were examined by confocal microscopy.

In assay [3] the target is mu and delta opioid receptors (Homo sapiens, UniProt P35372+P41143). The note with it: cited from earlier work.
Chain of mu and delta opioid receptors (P35372 whole entry): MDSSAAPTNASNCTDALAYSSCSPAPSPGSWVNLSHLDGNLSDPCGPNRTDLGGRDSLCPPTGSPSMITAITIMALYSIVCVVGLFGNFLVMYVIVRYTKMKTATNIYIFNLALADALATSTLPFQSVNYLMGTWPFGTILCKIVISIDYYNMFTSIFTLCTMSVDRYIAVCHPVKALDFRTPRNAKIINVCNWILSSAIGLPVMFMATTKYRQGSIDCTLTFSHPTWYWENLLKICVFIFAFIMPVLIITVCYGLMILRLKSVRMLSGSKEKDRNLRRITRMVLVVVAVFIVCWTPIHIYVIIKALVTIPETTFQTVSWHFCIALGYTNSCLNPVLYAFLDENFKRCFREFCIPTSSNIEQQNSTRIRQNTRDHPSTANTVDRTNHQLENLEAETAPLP
Chain of mu and delta opioid receptors (P41143 whole entry): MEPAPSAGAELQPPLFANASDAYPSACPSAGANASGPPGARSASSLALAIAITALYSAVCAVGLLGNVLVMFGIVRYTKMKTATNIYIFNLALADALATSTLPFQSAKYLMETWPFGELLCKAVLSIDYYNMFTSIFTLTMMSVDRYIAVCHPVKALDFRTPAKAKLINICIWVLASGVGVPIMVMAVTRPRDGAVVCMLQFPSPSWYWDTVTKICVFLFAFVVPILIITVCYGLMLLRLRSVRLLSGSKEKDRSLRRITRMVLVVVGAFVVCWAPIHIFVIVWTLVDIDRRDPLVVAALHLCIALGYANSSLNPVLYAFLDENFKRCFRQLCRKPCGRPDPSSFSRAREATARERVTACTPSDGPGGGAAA

Read-outs that look alike come from different tables or passages of the source.

Chain of M1-NLS-GFP (P11229 whole entry A424K/R426K/D427R): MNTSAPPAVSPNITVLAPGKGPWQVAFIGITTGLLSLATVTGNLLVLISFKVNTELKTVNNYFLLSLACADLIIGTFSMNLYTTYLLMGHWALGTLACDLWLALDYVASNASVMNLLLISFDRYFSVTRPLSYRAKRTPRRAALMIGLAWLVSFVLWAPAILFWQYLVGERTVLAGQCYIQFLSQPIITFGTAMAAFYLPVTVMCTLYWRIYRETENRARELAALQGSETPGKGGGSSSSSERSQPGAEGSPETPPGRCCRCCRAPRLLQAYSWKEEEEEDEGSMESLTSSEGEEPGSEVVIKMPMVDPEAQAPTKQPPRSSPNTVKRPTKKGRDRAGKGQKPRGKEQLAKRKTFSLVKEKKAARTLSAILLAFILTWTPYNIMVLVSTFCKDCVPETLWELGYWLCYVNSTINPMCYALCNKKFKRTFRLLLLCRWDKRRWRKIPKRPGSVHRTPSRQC
T1 sequence (Q01959 whole entry Y578K/C581K/S582R): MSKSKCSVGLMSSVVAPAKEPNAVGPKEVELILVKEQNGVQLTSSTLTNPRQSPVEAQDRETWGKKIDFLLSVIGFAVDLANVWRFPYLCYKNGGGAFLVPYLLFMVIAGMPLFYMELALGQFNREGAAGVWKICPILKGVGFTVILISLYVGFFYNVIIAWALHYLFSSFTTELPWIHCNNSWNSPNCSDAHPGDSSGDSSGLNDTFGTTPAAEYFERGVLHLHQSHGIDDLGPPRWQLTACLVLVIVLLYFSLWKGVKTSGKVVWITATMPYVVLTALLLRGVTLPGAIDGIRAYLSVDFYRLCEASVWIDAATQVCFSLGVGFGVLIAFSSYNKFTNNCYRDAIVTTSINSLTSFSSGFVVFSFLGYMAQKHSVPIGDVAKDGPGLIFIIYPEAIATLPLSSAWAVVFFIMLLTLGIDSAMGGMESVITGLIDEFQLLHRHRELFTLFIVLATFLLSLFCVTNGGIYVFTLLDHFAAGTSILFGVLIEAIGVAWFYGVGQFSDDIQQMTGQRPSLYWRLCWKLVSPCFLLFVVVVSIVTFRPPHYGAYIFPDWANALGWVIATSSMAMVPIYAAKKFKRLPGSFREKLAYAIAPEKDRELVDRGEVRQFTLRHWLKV
T8 sequence (P14416 whole entry I431K/E432K/R434K/K435R): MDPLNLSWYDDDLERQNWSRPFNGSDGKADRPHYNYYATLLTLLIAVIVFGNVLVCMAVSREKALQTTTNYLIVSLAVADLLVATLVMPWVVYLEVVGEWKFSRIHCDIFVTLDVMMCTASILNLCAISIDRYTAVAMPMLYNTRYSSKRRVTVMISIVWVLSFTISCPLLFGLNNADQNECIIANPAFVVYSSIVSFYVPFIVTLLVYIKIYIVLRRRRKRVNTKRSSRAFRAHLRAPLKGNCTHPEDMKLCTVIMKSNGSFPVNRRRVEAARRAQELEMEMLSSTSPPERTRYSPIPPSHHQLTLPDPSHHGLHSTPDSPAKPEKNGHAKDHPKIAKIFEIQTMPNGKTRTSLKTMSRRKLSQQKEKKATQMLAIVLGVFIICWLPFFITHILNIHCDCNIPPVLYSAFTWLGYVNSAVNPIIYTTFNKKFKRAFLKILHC
T3 sequence (P21728 whole entry D336K/F337K/R338F/A340R): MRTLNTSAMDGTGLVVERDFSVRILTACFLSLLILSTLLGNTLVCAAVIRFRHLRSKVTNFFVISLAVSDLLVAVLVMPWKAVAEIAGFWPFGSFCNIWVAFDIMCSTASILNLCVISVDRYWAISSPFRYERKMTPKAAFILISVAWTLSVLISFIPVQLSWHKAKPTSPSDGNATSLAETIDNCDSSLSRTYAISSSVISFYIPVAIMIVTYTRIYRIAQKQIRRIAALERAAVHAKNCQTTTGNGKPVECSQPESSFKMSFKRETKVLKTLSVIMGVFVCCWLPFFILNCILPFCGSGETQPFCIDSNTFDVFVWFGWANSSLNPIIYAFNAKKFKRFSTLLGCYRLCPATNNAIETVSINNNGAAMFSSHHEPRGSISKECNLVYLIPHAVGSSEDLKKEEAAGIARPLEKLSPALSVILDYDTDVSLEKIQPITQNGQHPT
T6 sequence (P21728 whole entry D336K/F337K/R338F/A340R/E404K/E405R/A406K): as the sequence (P21728 whole entry D336K/F337K/R338F/A340R) above, with E404K, E405R, A406K counted along it
Chain of DAT-NLS-GFP (Q01959 whole entry Y578K/C581K/S582R): as the sequence (Q01959 whole entry Y578K/C581K/S582R) above
T4 sequence (P28222 whole entry E374K/D375K/Q378R): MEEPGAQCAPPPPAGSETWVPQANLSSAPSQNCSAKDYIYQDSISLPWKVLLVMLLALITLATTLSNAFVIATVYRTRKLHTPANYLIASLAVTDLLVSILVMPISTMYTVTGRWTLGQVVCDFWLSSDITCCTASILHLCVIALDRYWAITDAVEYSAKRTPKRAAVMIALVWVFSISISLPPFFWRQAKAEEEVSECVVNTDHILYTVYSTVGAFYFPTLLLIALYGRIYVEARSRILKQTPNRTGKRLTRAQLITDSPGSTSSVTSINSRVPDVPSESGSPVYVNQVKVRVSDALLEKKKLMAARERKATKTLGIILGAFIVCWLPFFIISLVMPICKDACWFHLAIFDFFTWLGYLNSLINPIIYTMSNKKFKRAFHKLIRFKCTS
Chain of D1-NLS2-GFP (P21728 9-446 A335P/D336K/F337K/R338K/K339R/A340K/F341V limits assumed): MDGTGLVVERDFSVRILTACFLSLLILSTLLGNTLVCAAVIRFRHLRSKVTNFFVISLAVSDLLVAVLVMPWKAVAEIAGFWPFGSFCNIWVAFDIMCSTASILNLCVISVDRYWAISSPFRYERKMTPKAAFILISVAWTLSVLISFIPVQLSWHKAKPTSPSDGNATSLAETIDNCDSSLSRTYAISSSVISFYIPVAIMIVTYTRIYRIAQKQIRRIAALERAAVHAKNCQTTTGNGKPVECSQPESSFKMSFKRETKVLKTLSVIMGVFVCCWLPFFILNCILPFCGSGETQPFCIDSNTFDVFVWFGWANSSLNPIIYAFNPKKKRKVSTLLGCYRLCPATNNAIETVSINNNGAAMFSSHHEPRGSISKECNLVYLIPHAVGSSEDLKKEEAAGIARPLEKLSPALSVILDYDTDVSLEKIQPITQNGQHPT
Chain of D1-IC3-NLS-GFP (P21728 9-446 M262K/S263K limits assumed): as the sequence (P21728 9-446 I49K/R50K/R52K/H53R limits assumed) above, with K41I, K42R, K44R, R45H, M254K, S255K counted along it
T7 sequence (P21728 whole entry D336K/F337K/R338F/A340R): as the sequence (P21728 whole entry D336K/F337K/R338F/A340R) above
Description for DAT-NLS-GFP: HEK cells were transfected with a DNA construct encoding DAT-NLS-GFP (2 micrograms) and incubated for 48 hours. […] The cells were examined by confocal microscopy.
HEK cells were transfected with a construct encoding DAT-NLS-GFP (2 micrograms) and incubated for 48 hours. […] The cells were examined by confocal microscopy.
Control HEK cells were transfected with DAT-NLS-GFP incubated for 48 hours and not treated with drug.
From the text for HA-D1-NLS: Wells in a multi-well plate were coated with poly-L-ornithine and then plated with 50,000 cells per well. […] Following this, the cells were fixed with paraformaldehyde, and cell surface receptors were detected with a rat anti-HA antibody and then a goat anti-rat antibody conjugated to FITC. The fluorescent signal was detected by fluorometry (Cytofluor).
Wells in a multi-well plate were coated with poly-L-ornithine and then plated with 50,000 cells per well. […] Following this, the cells were fixed with paraformaldehyde, and cell surface receptors were detected with a rat anti-HA antibody and then a goat anti-rat antibody conjugated to FITC. The fluorescent signal was detected by fluorometry (Cytofluor). The results are the average of five wells per experimental condition.
HEK cells were transfected with HA-D1-NLS in a multi-well plate were coated with poly-L-ornithine at a concentration of 50,000 cells per well. […] Following this, the cells were fixed with paraformaldehyde, and cell surface receptors were detected with a rat anti-HA antibody and then a goat anti-rat antibody conjugated to FITC. The fluorescent signal was detected by fluorometry (Cytofluor). The results are the average of five wells per experimental condition.

With `OC1(c2ccc(Cl)cc2)c2ccccc2C2=NCCN21` (stereo not drawn) [mazindol], at DAT-NLS-GFP, the “% cells with transporter expression in the nucleus and cytoplasm” value (“% cells … in the nucleus and cytoplasm” below) was 39%; the “% cells with transporter expression on the cell surface and in cytoplasm” value turned out to be 61%.

Take `CC(N)Cc1ccccc1` (stereo not drawn) [amphetamine]: on DAT-NLS-RFP, the “% cells with cell surface or cytoplasmic expression of DAT-NLS-RFP” value is on record as 34%; the “% cells … in the nucleus and cytoplasm” value came to 66%; the “effect on the trafficking of the DAT-NLS-RFP to the nucleus” value is given as “no inhibitory effect”.

For `CC(C)(O)c1ccccc1CC[C@@H](SCC1(CC(=O)O)CC1)c1cccc(/C=C/c2ccc3ccc(Cl)cc3n2)c1` [montelukast], on Cys-LT2-NLS-GFP, the “% cells with cell surface expression of receptor” value was 90% and the “% cells with nuclear localisation of the receptor” value is reported as 10%.

As for `CCCN1C[C@H](CSC)C[C@@H]2c3cccc4[nH]cc(c34)C[C@H]21` [perglolide, pergolide], the “% cells with receptor expression at the cell surface” value at D1-NLS-GFP [1] is listed as 59%.

On to `CC[C@@H](CO)NC(=O)[C@@H]1C=C2c3cccc4c3c(cn4C)C[C@H]2N(C)C1` [methysergide], for which, on 5HT1B-NLS-GFP, the “% cells with cell surface localisation” value turned out to be 62% and the “% cells with receptor in the nucleus” value is 25%.

Take `CN1CCc2cc(Cl)c(O)cc2[C@@H](c2ccccc2)C1` [SCH-23390]: on D1-NLS-GFP [2] (0.2 μM), the “% cells receptor in nucleus” value is recorded as 19%; the “% cells receptor on surface” value was found to be 32%; the “% cells receptor on surface and in nucleus” value worked out at 49%. In addition, at D1-NLS-GFP [2] (0.5 μM), the “% cells receptor in nucleus” value came out at 20%; the “% cells receptor on surface” value is 36%; the “% cells receptor on surface and in nucleus” value is listed as 44%. Besides, at D1-NLS-GFP [2] (1 μM), the “% cells receptor in nucleus” value is recorded as 15%; the “% cells receptor on surface” value is given as 39%; the “% cells receptor on surface and in nucleus” value was 46%. Also, at D1-NLS-GFP [2] (5 μM), the “% cells receptor in nucleus” value is recorded as 12%; the “% cells receptor on surface” value is given as 46%; the “% cells receptor on surface and in nucleus” value is reported as 42%. For the same molecule, at D1-NLS-GFP [2] (10 μM, HEK cells), the “% cells receptor on surface” value is given as 58%; the “% cells receptor on surface and in nucleus” value was found to be 32%. In addition, at D1-IC1-NLS-GFP, the “% cells with receptor in the nucleus” value is recorded as 23% and the “% cells with receptor on the cell surface or in the cytoplasm” value was found to be 77%. In addition, on D1-IC3-NLS-GFP, the “% cells with receptor in the nucleus” value came out at 84% and the “% cells with receptor on the surface” value was 15%. At D1-2NLS-RFP, the “% cells with cell surface label” value came to 51% and the “% cells with nuclear label” value stood at 49%. In addition, on HA-D1-NLS, the “loss of HA-D1-NLS receptors from the cell surface” value is on record as 33%. On D1-NLS2-GFP, the “% cells with receptor expression in the nucleus” value is 22% and the “% cells with receptor on the cell surface or in cytoplasm” value is 78%.

In the case of (+)butaclamol, on D2-NLS-GFP, the “% cells with cell surface labelling” value was 90%, the “% cells with cytoplasmic label” value worked out at 5% and the “% cells with nuclear labelling” value is listed as 5%.

Regarding `COC(=O)[C@H]1[C@@H](OC(=O)c2ccccc2)C[C@@H]2CC[C@H]1N2C` [cocaine], at DAT-NLS-RFP, the “% cells with cell surface or cytoplasmic expression of DAT-NLS-RFP” value worked out at 75%; the “% cells … in the nucleus and cytoplasm” value turned out to be 25%.

As for iprotropium bromide, at M1-NLS-GFP, the “% cells with receptor expression in the cytoplasm only” value is given as 17%, the “% cells with receptor expression in the nucleus” value is 11% and the “% cells with receptor expression on the cell surface” value worked out at 72%.

For the molecule `C[C@@H](NC(=O)[C@@H](N)Cc1ccc(O)cc1)C(=O)NCC(=O)N(C)[C@@H](Cc1ccccc1)C(=O)NCCO` [DAMGO], the “potency at co-expressed versus individual receptors” value in assay [3] was “reduced potency”.

In the case of `CCN1CCC[C@H]1CNC(=O)c1c(O)c(Cl)cc(Cl)c1OC` [raclopride], at D2-NLS-GFP (10 micromolar, 48 hrs), the “% cells with cell surface labelling” value was 80%, the “% cells with cytoplasmic label” value is given as 15% and the “% cells with nuclear labelling” value stood at 5%.
